# PubChem BioAssay (NCI)
#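 Grown in 96-well plates, cells were treated for 48 hours with each compound at five concentrations. Insufficient inhibition: endpoint recorded as highest concentration tested. TGI denotes the concentration required for complete inhibition of growth.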
# Legend:
# Assay in all cases: inhibition of tumour cell growth, NCI panel, 48 h
# EKVX NSCLC = system: EKVX NSCLC
# BT-549 breast = system: BT-549 breast
# OVCAR-4 ovarian = system: OVCAR-4 ovarian
# M14 melanoma = system: M14 melanoma
# MOLT-4 leukemia = system: MOLT-4 leukemia
# NCI-H23 lung = system: NCI-H23 lung
# NCI-H522 lung = system: NCI-H522 lung
# MDA-MB-231 breast = system: MDA-MB-231 breast
# MDA-N = system: MDA-N
# SW-620 colon = system: SW-620 colon
# HCT-15 colon = system: HCT-15 colon
# NCI-H460 lung = system: NCI-H460 lung
# MCF7 breast = system: MCF7 breast
# OVCAR-3 ovarian = system: OVCAR-3 ovarian
# RXF 393 renal = system: RXF 393 renal
SMILES,TGI (EKVX NSCLC) [µM],TGI (BT-549 breast) [µM],TGI (OVCAR-4 ovarian) [µM],TGI (M14 melanoma) [µM],TGI (MOLT-4 leukemia) [µM],TGI (NCI-H23 lung) [µM],TGI (NCI-H522 lung) [µM],TGI (MDA-MB-231 breast) [µM],TGI (MDA-N) [µM],TGI (SW-620 colon) [µM],TGI (HCT-15 colon) [µM],TGI (NCI-H460 lung) [µM],TGI (MCF7 breast) [µM],TGI (OVCAR-3 ovarian) [µM],TGI (RXF 393 renal) [µM]
CCCNC1=C2C[C@@H](C)C[C@@H](OC)[C@@H](OC(=O)CCCN)[C@H](C)/C=C(\C)[C@@H](OC(N)=O)[C@H](OC)/C=C\C=C(/C)C(=O)NC(=CC1=O)C2=O,37.5,29.4,39.4,32.3,19.2,29.4,19.1,36.7,30.1,> 43.8,46.8,34.1,31.4,24,33.3
COc1ccc(-c2nc(-c3ccc(OC)cc3)n(-c3ccccc3)n2)cc1,> 100,> 100,> 100,> 100,> 100,> 100,62.5,> 100,> 100,> 100,> 100,> 100,> 100,> 100,> 100
c1ccc(-c2cnc(SC(c3ccccc3)c3ccccc3)[nH]2)cc1,60,> 100,> 100,> 100,> 100,52.5,54.6,> 100,69.6,> 100,38.8,46.8,74.7,> 100,78.5
COC(=O)C1OC(O[C@H]2CC[C@]3(C)[C@H]4CC=C5[C@@H]6CC(C)(C)CC[C@]6(C(=O)OC)CC[C@@]5(C)[C@]4(C)CC[C@H]3C2(C)C)C(O)C(O)C1O (stereo not given in full),29,32.1,30.6,30,> 100,32.4,35.2,19.2,30.9,34.6,27.1,25.7,29.2,15.5,18.2
Nc1nc(Cl)cc(NCC2(CO)CCCCC2)n1,> 100,> 100,> 100,> 100,> 100,> 100,> 100,> 100,> 100,> 100,> 100,> 100,> 100,> 100,> 100
CCO/C(O)=C(/C(=N)N1CCOCC1)C(=O)Nc1cccc(C(F)(F)F)c1,> 100,> 100,> 100,> 100,> 100,> 100,> 100,> 100,> 100,> 100,> 100,> 100,> 100,> 100,> 100
